Laboratory results: ChEMBL document CHEMBL1201862, “PubChem BioAssay data set” (2004)
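96-well plates; 48 h exposure; 5 concentrations. Endpoints by linear interpolation between flanking doses. Not reached: highest tested concentration assigned. GI50 = concentration required for 50% inhibition of growth.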 Active and inactive are the calls of the source. Rule as the data show it: active = GI50 up to about 1.1 µM and inactive = higher.

How the values were obtained:
Assay in all cases: DTP human tumour cell line panel, 48 h
OVCAR-4 = test system: OVCAR-4
Hs-578T = test system: Hs-578T
A549 = test system: A549
RPMI-8226 = test system: RPMI-8226
M14 = test system: M14
OVCAR-3 = test system: OVCAR-3
MDA-MB-435 = test system: MDA-MB-435
SK-MEL-2 = test system: SK-MEL-2
EKVX = test system: EKVX
SW-620 = test system: SW-620
HL-60 = test system: HL-60
SR = test system: SR
TK-10 = test system: TK-10
SF-295 = test system: SF-295
BT-549 = test system: BT-549
MDA-MB-231 = test system: MDA-MB-231
HOP-92 = test system: HOP-92
HCT-116 = test system: HCT-116
HT-29 = test system: HT-29
U-251 = test system: U-251
DU-145 = test system: DU-145
IGROV-1 = test system: IGROV-1
NCI-H23 = test system: NCI-H23
NCI-H460 = test system: NCI-H460
786-0 = test system: 786-0
SF-268 = test system: SF-268
NCI/ADR-RES = test system: NCI/ADR-RES
NCI-H522 = test system: NCI-H522
K562 = test system: K562
OVCAR-8 = test system: OVCAR-8
UACC-257 = test system: UACC-257
RXF 393 = test system: RXF 393
SK-OV-3 = test system: SK-OV-3
LOX IMVI = test system: LOX IMVI
SNB-19 = test system: SNB-19
MDA-N = test system: MDA-N
SK-MEL-28 = test system: SK-MEL-28
OVCAR-5 = test system: OVCAR-5
KM12 = test system: KM12
SN12C = test system: SN12C
SK-MEL-5 = test system: SK-MEL-5
PC-3 = test system: PC-3
SF-539 = test system: SF-539
HOP-62 = test system: HOP-62
CCRF-CEM = test system: CCRF-CEM
COLO 205 = test system: COLO 205
MOLT-4 = test system: MOLT-4
SNB-75 = test system: SNB-75
HCT-15 = test system: HCT-15
Malme-3M = test system: Malme-3M
T47D = test system: T47D
A498 = test system: A498
NCI-H226 = test system: NCI-H226
UO-31 = test system: UO-31
UACC-62 = test system: UACC-62
CAKI-1 = test system: CAKI-1
MCF7 = test system: MCF7
ACHN = test system: ACHN
HCC 2998 = test system: HCC 2998

## O=C(O)/C(=C\c1ccncc1)c1cccc2ccccc12
OVCAR-4
  GI50: > 100 µM (inactive)
Hs-578T
  GI50: > 100 µM (inactive)
A549
  GI50: 90.6 µM (inactive)
RPMI-8226
  GI50: > 100 µM (inactive)
M14
  GI50: > 100 µM (inactive)
OVCAR-3
  GI50: > 100 µM (inactive)
MDA-MB-435
  GI50: > 100 µM (inactive)
SK-MEL-2
  GI50: > 100 µM (inactive)
EKVX
  GI50: > 100 µM (inactive)
SW-620
  GI50: > 100 µM (inactive)
HL-60
  GI50: > 100 µM (inactive)
SR
  GI50: > 100 µM (inactive)
TK-10
  GI50: > 100 µM (inactive)
SF-295
  GI50: > 100 µM (inactive)
BT-549
  GI50: > 100 µM (inactive)
MDA-MB-231
  GI50: > 100 µM (inactive)
HOP-92
  GI50: > 100 µM (inactive)
HCT-116
  GI50: > 100 µM (inactive)
HT-29
  GI50: > 100 µM (inactive)
U-251
  GI50: > 100 µM (inactive)
DU-145
  GI50: > 100 µM (inactive)
IGROV-1
  GI50: > 100 µM (inactive)
NCI-H23
  GI50: > 100 µM (inactive)
NCI-H460
  GI50: > 100 µM (inactive)
786-0
  GI50: > 100 µM (inactive)
SF-268
  GI50: > 100 µM (inactive)
NCI/ADR-RES
  GI50: > 100 µM (inactive)
NCI-H522
  GI50: > 100 µM (inactive)
K562
  GI50: > 100 µM (inactive)
OVCAR-8
  GI50: > 100 µM (inactive)
UACC-257
  GI50: 0.145 µM (active)
RXF 393
  GI50: > 100 µM (inactive)
SK-OV-3
  GI50: > 100 µM (inactive)
LOX IMVI
  GI50: > 100 µM (inactive)
SNB-19
  GI50: > 100 µM (inactive)
MDA-N
  GI50: > 100 µM (inactive)
SK-MEL-28
  GI50: > 100 µM (inactive)
OVCAR-5
  GI50: > 100 µM (inactive)
KM12
  GI50: > 100 µM (inactive)
SN12C
  GI50: 44.1 µM (inactive)
SK-MEL-5
  GI50: > 100 µM (inactive)
PC-3
  GI50: > 100 µM (inactive)
SF-539
  GI50: > 100 µM (inactive)
HOP-62
  GI50: > 100 µM (inactive)
CCRF-CEM
  GI50: > 100 µM (inactive)
COLO 205
  GI50: > 100 µM (inactive)
MOLT-4
  GI50: > 100 µM (inactive)
SNB-75
  GI50: > 100 µM (inactive)
HCT-15
  GI50: > 100 µM
Malme-3M
  GI50: > 100 µM (inactive)
T47D
  GI50: > 100 µM (inactive)

## N=C(N)N/N=C/c1c(-c2ccc(Cl)cc2)nc2sc(Cl)cn12
A498
  GI50: 1.74 µM (inactive)
OVCAR-4
  GI50: 1.02 µM (active)
Hs-578T
  GI50: 1.85 µM (inactive)
A549
  GI50: 1.7 µM (inactive)
M14
  GI50: 1.9 µM (inactive)
OVCAR-3
  GI50: 1.55 µM (inactive)
MDA-MB-435
  GI50: 1.3 µM (inactive)
SK-MEL-2
  GI50: 1.71 µM (inactive)
EKVX
  GI50: 1.85 µM (inactive)
SW-620
  GI50: 1.09 µM (active)
HL-60
  GI50: 0.201 µM (active)
TK-10
  GI50: 1.72 µM (inactive)
SF-295
  GI50: 1.79 µM (inactive)
BT-549
  GI50: 1.27 µM (inactive)
MDA-MB-231
  GI50: 1.82 µM (inactive)
HOP-92
  GI50: 1.69 µM (inactive)
HCT-116
  GI50: 0.43 µM (active)
NCI-H226
  GI50: 1.94 µM (inactive)
HT-29
  GI50: 0.646 µM (active)
U-251
  GI50: 0.658 µM (active)
DU-145
  GI50: 1.95 µM (inactive)
IGROV-1
  GI50: 0.755 µM (active)
NCI-H23
  GI50: 1.08 µM (active)
UO-31
  GI50: 1.68 µM (inactive)
NCI-H460
  GI50: 1.69 µM (inactive)
786-0
  GI50: 1.58 µM (inactive)
SF-268
  GI50: 1.7 µM (inactive)
NCI/ADR-RES
  GI50: 1.79 µM (inactive)
NCI-H522
  GI50: 2.04 µM (inactive)
OVCAR-8
  GI50: 1.27 µM (inactive)
UACC-257
  GI50: 1.8 µM (inactive)
SK-OV-3
  GI50: 1.93 µM (inactive)
LOX IMVI
  GI50: 0.169 µM (active)
SNB-19
  GI50: 1.86 µM (inactive)
MDA-N
  GI50: 1.72 µM (inactive)
SK-MEL-28
  GI50: 1.81 µM (inactive)
OVCAR-5
  GI50: 1.67 µM (inactive)
KM12
  GI50: 1.03 µM (active)
SN12C
  GI50: 1.77 µM (inactive)
SK-MEL-5
  GI50: 1.62 µM (inactive)
PC-3
  GI50: 3 µM (inactive)
SF-539
  GI50: 1.27 µM (inactive)
HOP-62
  GI50: 1.85 µM (inactive)
UACC-62
  GI50: 1.78 µM (inactive)
CAKI-1
  GI50: 1.5 µM (inactive)
COLO 205
  GI50: 0.923 µM (active)
MOLT-4
  GI50: 0.504 µM (active)
SNB-75
  GI50: 1.41 µM (inactive)
HCT-15
  GI50: 1.36 µM
MCF7
  GI50: 1.53 µM (inactive)
ACHN
  GI50: 3.85 µM (inactive)
T47D
  GI50: 1.12 µM (inactive)

## Cc1cc2ncn(C3CCCCO3)c2cc1C (centres undefined)
OVCAR-4
  GI50: > 100 µM (inactive)
Hs-578T
  GI50: > 100 µM (inactive)
A549
  GI50: > 100 µM (inactive)
RPMI-8226
  GI50: > 100 µM (inactive)
M14
  GI50: > 100 µM (inactive)
OVCAR-3
  GI50: > 100 µM (inactive)
MDA-MB-435
  GI50: > 100 µM (inactive)
SK-MEL-2
  GI50: > 100 µM (inactive)
HCC 2998
  GI50: > 100 µM (inactive)
EKVX
  GI50: > 100 µM (inactive)
SW-620
  GI50: > 100 µM (inactive)
HL-60
  GI50: > 100 µM (inactive)
TK-10
  GI50: > 100 µM (inactive)
SF-295
  GI50: > 100 µM (inactive)
BT-549
  GI50: > 100 µM (inactive)
MDA-MB-231
  GI50: > 100 µM (inactive)
HOP-92
  GI50: > 100 µM (inactive)
HCT-116
  GI50: > 100 µM (inactive)
NCI-H226
  GI50: > 100 µM (inactive)
HT-29
  GI50: > 100 µM (inactive)
U-251
  GI50: > 100 µM (inactive)
DU-145
  GI50: > 100 µM (inactive)
IGROV-1
  GI50: > 100 µM (inactive)
NCI-H23
  GI50: 50.2 µM (inactive)
UO-31
  GI50: 20.2 µM (inactive)
786-0
  GI50: > 100 µM (inactive)
SF-268
  GI50: > 100 µM (inactive)
NCI/ADR-RES
  GI50: > 100 µM (inactive)
NCI-H522
  GI50: > 100 µM (inactive)
K562
  GI50: > 100 µM (inactive)
OVCAR-8
  GI50: > 100 µM (inactive)
UACC-257
  GI50: > 100 µM (inactive)
RXF 393
  GI50: > 100 µM (inactive)
SK-OV-3
  GI50: > 100 µM (inactive)
LOX IMVI
  GI50: 62.5 µM (inactive)
SNB-19
  GI50: > 100 µM (inactive)
MDA-N
  GI50: > 100 µM (inactive)
SK-MEL-28
  GI50: > 100 µM (inactive)
OVCAR-5
  GI50: > 100 µM (inactive)
KM12
  GI50: 35.5 µM (inactive)
SN12C
  GI50: > 100 µM (inactive)
SK-MEL-5
  GI50: > 100 µM (inactive)
PC-3
  GI50: > 100 µM (inactive)
SF-539
  GI50: > 100 µM (inactive)
HOP-62
  GI50: > 100 µM (inactive)
UACC-62
  GI50: > 100 µM (inactive)
CCRF-CEM
  GI50: > 100 µM (inactive)
CAKI-1
  GI50: > 100 µM (inactive)
COLO 205
  GI50: > 100 µM (inactive)
MOLT-4
  GI50: > 100 µM (inactive)
SNB-75
  GI50: > 100 µM (inactive)
HCT-15
  GI50: > 100 µM
Malme-3M
  GI50: > 100 µM (inactive)
MCF7
  GI50: > 100 µM (inactive)
ACHN
  GI50: > 100 µM (inactive)
T47D
  GI50: > 100 µM (inactive)
